# Experimental data taken from US8236750B2, “Composition comprising a pulmonary surfactant and a TNF-derived peptide” (Nycomed GmbH, priority 2004, dated 2012).
# Tested on: Male Wistar rats
# Assay: Arterial blood oxygenation after repeated saline lung lavage in rats
# Assay type: in vivo, rat
# Conditions: TIP 500 μg/animal alone, intratracheally, 1.2 mL in NaCl 0.9%; lung-lavaged rats; up to 150 min after administration
# Protocol: Male Wistar rats were prepared as disclosed in Example 5. NaCl 0.9% (open circles), LUSUPULTIDE 12.5 mgPL/kg (filled squares), the circularized peptide […] (SEQ ID NO:3) (=TIP) 500 μg/animal (stars), or LUSUPULTIDE 12.5 mgPL/kg in combination with TIP 500 μg/animal (open squares) was administered intratracheally (administration volume 1.2 mL, solvent NaCl 0.9%). Arterial blood oxygenation (PaO2) was determined every 30 min up to 150 min after drug administration (t=210 min). […] Data are shown as mean ±SEM.*p<0.05, **p<0.01 versus LUSUPULTIDE 12.5 mgPL/kg
# Male Wistar rats (230-280 g) were anaesthetized, catheterized to withdraw arterial blood, and ventilated with pure oxygen (=>PaO2˜500-550 mmHg). 30 min later lungs were ravaged 5-9 times with NaCl 0.9% (=>PaO2˜50-100 mmHg). After 60 min NaCl 0.9%, LUSUPULTIDE 12.5 mgPL/kg, TIP (500 μg/animal), or LUSUPULTIDE (12.5 mgPL/kg) in combination with TIP (500 μg/animal) was administered intratracheally (administration volume 1.2 mL, solvent NaCl 0.9%). Arterial blood oxygenation (PaO2) was determined every 30 min up to 150 min after drug administration (t=210 min).
sequence,measurement,value
CGQRETPEGAEAKPWYC [TIP],Influence on arterial blood oxygenation (PaO2),no influence on oxygenation
